Calls of active or inactive are those of the source.
Experiments:
[1] = target: T1, Delta-type opioid receptor (Homo sapiens, UniProt P41143); assay: HTS Image-Based Screen for Antagonists of the DOR Receptor. [Related pubchem assays (depositor defined):AID1777, AID1785, AID1786, AID2133]; format: functional
Mu-type opioid receptor = Mu-type opioid receptor (Homo sapiens, UniProt P35372); assay: HTS Image-Based Screen for Agonists of the MOR Receptor. [Related pubchem assays (depositor defined):AID1777, AID1785, AID1786, AID2133]; format: functional;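 further: imaging of beta-arrestin GFP recruitment into spots after receptor activation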
[2] = target: T1, Delta-type opioid receptor; assay: HTS Image-Based Screen for Agonists of the DOR Receptor. [Related pubchem assays (depositor defined):AID1777, AID1786, AID2133]; format: functional
[3] = target: T2, Kappa-type opioid receptor (Homo sapiens, UniProt P41145); format: functional
T2 sequence (P41145 whole entry): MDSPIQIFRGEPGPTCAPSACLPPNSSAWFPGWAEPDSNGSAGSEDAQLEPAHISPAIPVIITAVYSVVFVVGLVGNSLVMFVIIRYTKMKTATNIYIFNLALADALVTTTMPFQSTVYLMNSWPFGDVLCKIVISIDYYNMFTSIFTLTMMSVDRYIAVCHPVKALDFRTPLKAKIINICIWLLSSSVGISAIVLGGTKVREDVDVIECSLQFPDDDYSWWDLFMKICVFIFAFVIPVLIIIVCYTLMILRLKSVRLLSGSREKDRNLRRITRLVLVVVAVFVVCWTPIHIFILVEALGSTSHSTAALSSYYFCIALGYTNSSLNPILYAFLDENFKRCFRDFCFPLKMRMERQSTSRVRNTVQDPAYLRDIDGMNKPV

[4] = target: T2, Kappa-type opioid receptor; format: functional; remark: listed apart in the source
[5] = target: T3, Intestinal-type alkaline phosphatase (Homo sapiens, UniProt P09923); assay: Dose Response confirmation of uHTS hits from a small molecule inhibitors of human intestinal alkaline phosphatase via a luminescent assay. [Related pubchem assays (depositor defined):AID2544, AID2574]; format: functional
T3 sequence (P09923 whole entry): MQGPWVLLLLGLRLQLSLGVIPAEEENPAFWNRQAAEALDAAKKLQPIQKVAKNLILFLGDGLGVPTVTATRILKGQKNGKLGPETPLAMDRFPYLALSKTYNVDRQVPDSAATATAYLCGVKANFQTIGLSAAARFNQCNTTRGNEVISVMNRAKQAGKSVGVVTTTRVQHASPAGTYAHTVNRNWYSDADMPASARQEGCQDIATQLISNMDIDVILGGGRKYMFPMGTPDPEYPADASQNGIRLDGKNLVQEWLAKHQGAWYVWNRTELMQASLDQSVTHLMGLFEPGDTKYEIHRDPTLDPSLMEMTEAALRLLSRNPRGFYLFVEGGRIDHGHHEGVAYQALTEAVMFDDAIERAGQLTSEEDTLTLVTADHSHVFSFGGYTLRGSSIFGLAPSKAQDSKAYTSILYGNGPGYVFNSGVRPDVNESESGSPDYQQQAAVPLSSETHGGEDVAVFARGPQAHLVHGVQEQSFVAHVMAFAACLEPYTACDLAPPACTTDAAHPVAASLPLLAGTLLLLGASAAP

[6] = target: T3, Intestinal-type alkaline phosphatase; assay: human intestinal alkaline phosphatase activators, dose response, biochemical, luminescence, uHTS hits (AID 463120); format: functional
[7] = target: Intestinal-type alkaline phosphatase (Mus musculus, UniProt P24822); assay: PubChem AID 488785; format: functional
[8] = target: T4, Alkaline phosphatase, tissue-nonspecific isozyme (Homo sapiens, UniProt P05186); assay: TNAP enzyme inhibition by screening hits, dose response, selectivity assay for mouse IAP inhibitor project, biochemical, human TNAP, uHTS hits (AID 488906); format: functional
T4 sequence (P05186 whole entry): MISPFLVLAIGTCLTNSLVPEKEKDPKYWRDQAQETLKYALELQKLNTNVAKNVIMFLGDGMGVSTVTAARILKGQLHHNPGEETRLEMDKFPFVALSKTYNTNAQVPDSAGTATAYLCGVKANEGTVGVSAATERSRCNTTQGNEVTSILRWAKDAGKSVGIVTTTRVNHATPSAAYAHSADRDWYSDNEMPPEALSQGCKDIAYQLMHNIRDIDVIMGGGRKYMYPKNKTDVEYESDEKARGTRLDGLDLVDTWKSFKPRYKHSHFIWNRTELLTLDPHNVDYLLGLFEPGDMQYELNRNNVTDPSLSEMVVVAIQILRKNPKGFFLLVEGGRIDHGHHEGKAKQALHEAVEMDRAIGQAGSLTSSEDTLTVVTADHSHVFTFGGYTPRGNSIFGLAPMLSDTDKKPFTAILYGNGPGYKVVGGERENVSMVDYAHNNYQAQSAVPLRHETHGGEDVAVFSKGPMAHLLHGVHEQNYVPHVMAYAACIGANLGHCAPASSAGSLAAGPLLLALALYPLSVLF

[9] = target: T3, Intestinal-type alkaline phosphatase; assay: inhibition of human intestinal alkaline phosphatase – biochemical, dose response (AID 488876); format: functional
[10] = target: T5, G-protein coupled receptor 55 (Homo sapiens, UniProt Q9Y2T6); assay: GPR55 antagonists blocking LPI-driven arrestin recruitment, primary screen, imaging, U2OS, beta-arrestin-GFP, LPI agonist (AID 2013); format: functional;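 further: antagonist potency measured as reduced agonist-driven arrestin aggregation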
T5 sequence (Q9Y2T6 whole entry): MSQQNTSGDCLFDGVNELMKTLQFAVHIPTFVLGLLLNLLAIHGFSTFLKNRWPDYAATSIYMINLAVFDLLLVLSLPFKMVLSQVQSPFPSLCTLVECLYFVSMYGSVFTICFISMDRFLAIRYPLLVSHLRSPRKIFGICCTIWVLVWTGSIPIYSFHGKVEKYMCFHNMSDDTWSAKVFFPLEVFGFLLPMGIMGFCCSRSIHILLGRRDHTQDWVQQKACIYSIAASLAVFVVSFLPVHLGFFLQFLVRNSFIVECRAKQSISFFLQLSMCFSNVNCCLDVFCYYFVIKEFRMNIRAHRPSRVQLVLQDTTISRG

Cannabinoid receptor 1 [11] = target: T6, Cannabinoid receptor 1 (Homo sapiens, UniProt P21554); assay: SAR analysis of antagonists of the Cannabinoid Receptor 1 using an Image-Based Assay - Set 2. [Related pubchem assays (depositor defined):AID2013, AID2026]; format: functional
T6 sequence (P21554 whole entry): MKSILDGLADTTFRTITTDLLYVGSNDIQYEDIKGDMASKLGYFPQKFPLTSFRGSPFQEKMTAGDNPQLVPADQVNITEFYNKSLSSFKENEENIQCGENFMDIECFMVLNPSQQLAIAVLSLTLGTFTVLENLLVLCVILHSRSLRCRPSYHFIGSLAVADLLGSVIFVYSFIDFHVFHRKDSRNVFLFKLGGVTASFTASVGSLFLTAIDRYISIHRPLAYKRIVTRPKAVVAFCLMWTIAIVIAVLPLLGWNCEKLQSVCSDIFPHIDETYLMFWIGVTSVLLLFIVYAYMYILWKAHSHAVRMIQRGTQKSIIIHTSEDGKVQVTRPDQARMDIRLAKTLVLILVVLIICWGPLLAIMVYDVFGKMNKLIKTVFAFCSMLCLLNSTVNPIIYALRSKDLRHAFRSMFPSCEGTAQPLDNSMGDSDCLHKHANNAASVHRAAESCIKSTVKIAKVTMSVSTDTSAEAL

[12] = target: T7, G-protein coupled receptor 35 (Homo sapiens, UniProt Q9HC97); assay: SAR analysis of Agonists of the GPR35 Receptor using an Image-Based Assay - Set 2. [Related pubchem assays (depositor defined):AID2013, AID2026]; format: functional
T7 sequence (Q9HC97 whole entry): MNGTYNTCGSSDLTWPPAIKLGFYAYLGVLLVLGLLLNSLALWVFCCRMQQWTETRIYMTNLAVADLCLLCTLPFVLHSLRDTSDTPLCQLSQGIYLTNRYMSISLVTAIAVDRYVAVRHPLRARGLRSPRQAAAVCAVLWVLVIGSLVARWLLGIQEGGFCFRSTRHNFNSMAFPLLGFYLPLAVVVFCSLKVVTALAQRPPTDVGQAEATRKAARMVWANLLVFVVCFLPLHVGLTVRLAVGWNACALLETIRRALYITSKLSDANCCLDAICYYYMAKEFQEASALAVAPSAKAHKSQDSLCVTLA

Cannabinoid receptor 2 [13] = target: T8, Cannabinoid receptor 2 (Homo sapiens, UniProt P34972); assay: SAR analysis of antagonists of the Cannabinoid Receptor 2 using an Image-Based Assay. [Related pubchem assays (depositor defined):AID2013, AID2026]; format: functional
T8 sequence (P34972 whole entry): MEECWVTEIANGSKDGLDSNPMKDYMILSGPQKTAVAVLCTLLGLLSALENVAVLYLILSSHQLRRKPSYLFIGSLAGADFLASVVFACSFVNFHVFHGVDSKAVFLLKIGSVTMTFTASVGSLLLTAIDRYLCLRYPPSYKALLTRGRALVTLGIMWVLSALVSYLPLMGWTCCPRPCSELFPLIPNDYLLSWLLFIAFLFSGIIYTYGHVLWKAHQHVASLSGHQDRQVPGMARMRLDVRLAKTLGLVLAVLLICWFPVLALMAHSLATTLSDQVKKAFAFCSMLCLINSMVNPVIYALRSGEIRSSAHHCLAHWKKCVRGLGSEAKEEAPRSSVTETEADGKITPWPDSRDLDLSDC

Cannabinoid receptor 1 [14] = target: T6, Cannabinoid receptor 1; assay: SAR analysis of agonists of the Cannabinoid Receptor 1 using an Image-Based Assay - Set 2. [Related pubchem assays (depositor defined):AID2013, AID2026]; format: functional
[15] = target: T7, G-protein coupled receptor 35; assay: SAR analysis of Antagonists of the GPR35 Receptor using an Image-Based Assay - Set 3. [Related pubchem assays (depositor defined):AID2013, AID2026]; format: functional
[16] = target: T5, G-protein coupled receptor 55; assay: GPR55 antagonist potency of analogs, SAR follow-up, imaging, U2OS, beta-arrestin-GFP, LPI agonist, set 2 (AID 2820); format: functional
Cannabinoid receptor 2 [17] = target: T8, Cannabinoid receptor 2; assay: SAR analysis of agonists of the Cannabinoid Receptor 2 using an Image-Based Assay. [Related pubchem assays (depositor defined):AID2013, AID2026]; format: functional
SUMO-activating enzyme [18] = target: T9, SUMO-activating enzyme (Homo sapiens, UniProt Q9UBT2); assay: SUMOylation inhibitor hit validation, confirmation, SUMOylation inhibitor project, biochemical, AlphaScreen (AID 2018); format: functional
T9 sequence (Q9UBE0 whole entry): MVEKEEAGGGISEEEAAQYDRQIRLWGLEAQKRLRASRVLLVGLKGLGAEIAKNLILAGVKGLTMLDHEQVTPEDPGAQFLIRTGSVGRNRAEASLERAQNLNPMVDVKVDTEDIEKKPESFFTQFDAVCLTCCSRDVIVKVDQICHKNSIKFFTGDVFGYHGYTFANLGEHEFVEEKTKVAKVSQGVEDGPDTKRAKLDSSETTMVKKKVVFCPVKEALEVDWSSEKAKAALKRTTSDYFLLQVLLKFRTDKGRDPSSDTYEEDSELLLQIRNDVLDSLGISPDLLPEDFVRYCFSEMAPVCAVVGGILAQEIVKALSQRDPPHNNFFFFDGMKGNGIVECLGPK
T9 sequence (Q9UBT2 whole entry): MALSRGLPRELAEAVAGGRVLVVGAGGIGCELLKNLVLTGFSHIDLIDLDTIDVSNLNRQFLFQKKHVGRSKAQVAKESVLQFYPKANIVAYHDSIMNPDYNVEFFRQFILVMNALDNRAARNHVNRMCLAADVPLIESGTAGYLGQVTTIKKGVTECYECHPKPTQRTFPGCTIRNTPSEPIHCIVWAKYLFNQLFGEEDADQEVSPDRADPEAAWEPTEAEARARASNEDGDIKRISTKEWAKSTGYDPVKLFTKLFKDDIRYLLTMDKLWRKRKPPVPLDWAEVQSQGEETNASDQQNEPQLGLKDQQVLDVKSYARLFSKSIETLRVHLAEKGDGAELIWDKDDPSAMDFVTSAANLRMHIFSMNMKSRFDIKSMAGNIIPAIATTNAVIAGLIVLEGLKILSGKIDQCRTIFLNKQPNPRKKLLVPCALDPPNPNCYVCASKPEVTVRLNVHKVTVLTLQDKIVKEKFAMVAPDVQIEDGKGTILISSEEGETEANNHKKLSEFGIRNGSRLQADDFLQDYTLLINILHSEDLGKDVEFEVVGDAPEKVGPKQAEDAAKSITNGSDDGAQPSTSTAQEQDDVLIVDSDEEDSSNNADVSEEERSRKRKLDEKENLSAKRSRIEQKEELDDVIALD

SUMO-activating enzyme [19] = target: T9, SUMO-activating enzyme; assay: inhibitors of in vitro SUMOylation cascade, primary screen, biochemical, HTRF, uHTS (AID 2006); format: protein-complex assay
[20] = target: T10, Replicative DNA helicase DnaB (Mycobacterium tuberculosis, UniProt P9WMR3); assay: DnaB intein splicing inhibitors, dose response, biochemical, cell-free fluorescence (AID 449749); format: functional
T10 sequence (P9WMR3 whole entry): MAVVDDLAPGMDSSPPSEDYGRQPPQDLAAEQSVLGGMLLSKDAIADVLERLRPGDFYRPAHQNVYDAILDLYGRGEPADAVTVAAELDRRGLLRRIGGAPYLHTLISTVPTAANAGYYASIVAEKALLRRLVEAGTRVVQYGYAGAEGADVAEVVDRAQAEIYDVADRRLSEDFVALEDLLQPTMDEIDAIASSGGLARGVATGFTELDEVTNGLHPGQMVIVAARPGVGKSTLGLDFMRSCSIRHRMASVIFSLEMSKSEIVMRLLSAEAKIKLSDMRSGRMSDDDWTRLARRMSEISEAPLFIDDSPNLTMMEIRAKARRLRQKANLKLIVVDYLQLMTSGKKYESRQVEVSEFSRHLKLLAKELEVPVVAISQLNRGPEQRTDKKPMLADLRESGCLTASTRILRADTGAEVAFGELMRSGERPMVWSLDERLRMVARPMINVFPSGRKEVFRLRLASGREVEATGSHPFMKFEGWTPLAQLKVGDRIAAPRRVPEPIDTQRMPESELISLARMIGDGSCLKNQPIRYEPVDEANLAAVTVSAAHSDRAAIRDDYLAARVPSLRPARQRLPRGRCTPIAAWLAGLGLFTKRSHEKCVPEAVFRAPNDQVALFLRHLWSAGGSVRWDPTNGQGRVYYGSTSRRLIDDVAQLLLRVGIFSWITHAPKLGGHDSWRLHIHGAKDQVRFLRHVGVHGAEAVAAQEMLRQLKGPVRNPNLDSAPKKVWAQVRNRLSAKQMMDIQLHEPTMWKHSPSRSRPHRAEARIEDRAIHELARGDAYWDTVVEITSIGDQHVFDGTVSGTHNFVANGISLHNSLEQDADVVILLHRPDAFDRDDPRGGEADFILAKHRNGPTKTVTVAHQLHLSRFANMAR

Protein RecA = target: T11, Protein RecA (Mycobacterium tuberculosis, UniProt P9WHJ3); assay: Fluorescence Cell-Free Homogeneous Dose Retest to Identify Inhibitors of RecA-Intein Splicing Activity. [Related pubchem assays (depositor defined):AID2097, AID2223, AID489010, AID492950]; format: functional
T11 sequence (P9WHJ3 whole entry): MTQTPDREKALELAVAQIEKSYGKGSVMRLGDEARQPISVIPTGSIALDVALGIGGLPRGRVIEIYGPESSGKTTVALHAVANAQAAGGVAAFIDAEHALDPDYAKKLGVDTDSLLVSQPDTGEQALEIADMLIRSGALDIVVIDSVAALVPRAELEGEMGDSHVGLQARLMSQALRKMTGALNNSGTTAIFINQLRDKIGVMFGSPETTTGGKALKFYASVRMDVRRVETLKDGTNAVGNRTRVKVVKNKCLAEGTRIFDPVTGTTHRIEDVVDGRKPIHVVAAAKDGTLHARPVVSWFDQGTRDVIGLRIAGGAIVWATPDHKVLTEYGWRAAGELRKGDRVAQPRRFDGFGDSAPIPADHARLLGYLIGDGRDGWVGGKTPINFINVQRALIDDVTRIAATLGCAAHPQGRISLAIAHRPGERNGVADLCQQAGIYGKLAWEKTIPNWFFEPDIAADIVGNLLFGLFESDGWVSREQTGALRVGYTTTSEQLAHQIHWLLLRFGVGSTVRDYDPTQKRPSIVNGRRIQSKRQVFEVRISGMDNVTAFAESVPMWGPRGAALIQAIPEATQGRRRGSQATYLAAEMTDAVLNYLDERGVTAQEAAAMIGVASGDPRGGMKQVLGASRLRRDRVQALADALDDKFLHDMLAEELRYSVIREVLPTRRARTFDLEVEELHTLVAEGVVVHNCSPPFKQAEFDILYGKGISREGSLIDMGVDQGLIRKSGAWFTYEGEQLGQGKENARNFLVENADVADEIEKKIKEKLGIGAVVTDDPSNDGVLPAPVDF

Genome polyprotein = Genome polyprotein (dengue virus type 2, UniProt P29990); assay: Dengue-2 NS5 methyltransferase inhibitors, primary screen, biochemical, confirmation dose response (AID 588689); format: functional
Sequence of Genome polyprotein (P29990 2492-3391 limits assumed): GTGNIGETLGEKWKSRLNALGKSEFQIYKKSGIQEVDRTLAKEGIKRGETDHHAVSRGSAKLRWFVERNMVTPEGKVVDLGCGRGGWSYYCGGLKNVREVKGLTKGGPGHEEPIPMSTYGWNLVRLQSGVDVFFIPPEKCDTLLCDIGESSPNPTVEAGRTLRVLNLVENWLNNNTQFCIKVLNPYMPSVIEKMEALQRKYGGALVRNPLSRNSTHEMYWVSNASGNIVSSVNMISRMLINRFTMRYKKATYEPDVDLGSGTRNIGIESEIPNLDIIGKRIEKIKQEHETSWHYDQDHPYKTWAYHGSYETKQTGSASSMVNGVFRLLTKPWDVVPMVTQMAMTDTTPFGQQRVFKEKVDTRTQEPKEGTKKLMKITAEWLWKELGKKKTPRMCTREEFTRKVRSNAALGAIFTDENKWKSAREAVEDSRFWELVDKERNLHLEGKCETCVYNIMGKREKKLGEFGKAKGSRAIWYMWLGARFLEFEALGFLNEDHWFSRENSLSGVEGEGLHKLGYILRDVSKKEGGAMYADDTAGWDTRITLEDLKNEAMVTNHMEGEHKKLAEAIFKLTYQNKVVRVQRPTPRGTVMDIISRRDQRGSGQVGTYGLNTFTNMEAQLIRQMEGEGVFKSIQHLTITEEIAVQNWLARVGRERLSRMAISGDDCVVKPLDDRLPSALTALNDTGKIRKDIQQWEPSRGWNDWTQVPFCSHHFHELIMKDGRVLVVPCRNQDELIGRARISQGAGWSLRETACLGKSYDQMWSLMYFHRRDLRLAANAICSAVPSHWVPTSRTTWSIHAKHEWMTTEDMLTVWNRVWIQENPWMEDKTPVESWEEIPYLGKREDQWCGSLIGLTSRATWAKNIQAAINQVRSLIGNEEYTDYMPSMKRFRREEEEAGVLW

Beta-galactosidase = Beta-galactosidase (Escherichia coli, UniProt Q8VNN2); assay: beta-galactosidase enzyme inhibitors and activators, dose response, artefact control for CCR6 antagonist project, biochemical, E. coli enzyme, set 3 (AID 504712); format: functional
Apelin receptor = Apelin receptor (Homo sapiens, UniProt P35414); assay: APJ beta-arrestin recruitment antagonism, SAR follow-up, selectivity assay for CCR6 antagonist project, cell-based, luminescent, enzyme-fragment complementation (AID 588359); format: functional
[21] = inhibitors of firefly luciferase expression or activity, dose response, H4 neuroglioma cells, luminescence (AID 1990); format: functional, cell-based
[22] = Luminescence Cell-Based Dose Response HTS to Identify Inhibitors of 5'UTR Stem-Loop Driven Prion Protein mRNA Translation in H4 Neuroglioblastoma Cells. [Related pubchem assays: 1827 (Project Summary), 1813 (Primary HTS)]; format: functional
[23] = inhibitors of SNCA 5'UTR-driven reporter translation, confirmation, H4 neuroglioma cells, luminescence (AID 1988); format: functional, cell-based
[24] = target: Lysine-specific demethylase 4C (Homo sapiens, UniProt Q9H3R0); assay: GASC-1 (JMJD2C) histone demethylase inhibitors, dose response, biochemical, DELFIA europium, cherry-picked samples (AID 488835); format: functional
INS1 = assay: beta cell apoptosis inhibitors, cytokine rescue, dose response, luminescence, retest (AID 449756); format: functional, cell-based; details: Rattus norvegicus;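 further: cell death triggered by IL-1 beta plus TNF-alpha plus IFN-gamma mixture; protective hits raise ATP signal compared with cytokine alone wells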

T1 sequence (P41143 whole entry): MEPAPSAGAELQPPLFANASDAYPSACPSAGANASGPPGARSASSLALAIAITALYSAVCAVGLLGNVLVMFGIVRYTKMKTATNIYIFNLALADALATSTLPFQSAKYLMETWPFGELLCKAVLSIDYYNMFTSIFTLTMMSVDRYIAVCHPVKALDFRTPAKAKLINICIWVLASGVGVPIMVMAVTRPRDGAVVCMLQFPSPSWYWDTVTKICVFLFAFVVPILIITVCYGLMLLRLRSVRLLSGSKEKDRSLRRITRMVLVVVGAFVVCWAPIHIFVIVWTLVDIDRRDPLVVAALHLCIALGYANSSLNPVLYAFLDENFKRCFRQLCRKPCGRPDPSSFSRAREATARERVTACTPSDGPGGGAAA

With COc1ccc(C[C@@H]2CN3C(=NC[C@@H]3C)N2CCNC(=O)c2ccc(C)c(Br)c2)cc1 the IC50 [1] was > 32 µM (inactive), the EC50 (Mu-type opioid receptor) was > 32 µM (inactive) and the EC50 [2] was > 32 µM (inactive). The EC50 [3] was less than 0.5 µM and the EC50 [4] was 0.118 µM.

With CN1CCN(CCNC(=O)Cn2c(=O)c3cccn3c3ccc(F)cc32)CC1 the IC50 [5] was > 100 µM (inactive) and the EC50 [6] was > 100 µM (inactive).

With CCOC(=O)c1ccc(N2CCN(c3ccccc3F)CC2)c(NC(=O)Nc2ccccc2)c1 the IC50 [7] was 8.66 µM (active), the IC50 [8] was > 100 µM (inactive) and the IC50 [9] was > 100 µM (inactive).

For Cc1ccc2c(c1)C(c1ccc(O)cc1)(c1ccc(O)cc1)C(=O)N2C, the IC50 [10] was 1.57 µM (active), the IC50 (Cannabinoid receptor 1 [11]) was 5.74 µM (active) and the EC50 [12] was > 32 µM (inactive). The IC50 (Cannabinoid receptor 2 [13]) was > 32 µM (inactive), the EC50 (Cannabinoid receptor 1 [14]) was > 32 µM (inactive) and the IC50 [15] was > 32 µM (inactive). For the same molecule, the IC50 [16] was 1 µM (active) and the EC50 (Cannabinoid receptor 2 [17]) was > 32 µM (inactive).

For COc1cc(/C=C2\C(=O)N(c3ccc(S(N)(=O)=O)cc3)N=C2C)ccc1OC(=O)c1ccco1, the IC50 (SUMO-activating enzyme [18]) was 6.36 µM (active), the IC50 (SUMO-activating enzyme [19]) was > 100 µM (inactive) and the AC50 [20] was > 380 µM (inactive). The EC50 (Protein RecA) was 23.8 µM (active) and the IC50 (Genome polyprotein) was 73.2 µM (active).

In the case of CC(C)(C)c1ccc2c(c1)OC(C(=O)N/N=C\c1ccccn1)CO2 (stereo not given), the IC50 (Beta-galactosidase) is reported as > 66.6 µM (inactive) and the IC50 (Apelin receptor) is reported as 28.8 µM (inactive).

For O=C(CNC(=O)c1ccccc1O)N/N=C/c1cc(Br)ccc1OC(=O)/C=C/c1ccco1, the EC50 [21] was 10.7 µM (active), the EC50 [22] was 7.28 µM (active) and the EC50 [23] was 9.47 µM (active). For the same molecule, the AC50 [24] was 10.8 µM (active) and the AC50 (INS1) was 3.13 µM (active).
